The record followed here is the METLIN SMRT retention time set (Domingo-Almenara et al. 2019).

The series can be described thus: gradient 5% acetonitrile 3 min, to 50% in 2 min, to 85% in 15 min, held 3 min, 100 µL/min. The note with it: column: Zorbax Extend-C18 2.1 x 50 mm; eluents: water / acetonitrile, 0.1% formic acid. The method in brief:
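Retention times come from adduct peaks that were picked computationally and then checked by hand. The standards, pure and pooled in mixtures of ~100 molecules, were run on a Zorbax Extend-C18 column (2.1 × 50 mm, 1.8 μm) at 100 μL/min with water and acetonitrile, each with 0.1% formic acid. Detection was by quadrupole time-of-flight mass spectrometry in positive and negative ionization mode, with a dead volume of 40 μL and a dwell volume of 900 μL.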
In the case of `CCn1c(=O)c2ccn(CC(=O)Nc3ccc4c(c3)OCCO4)c2n(CC)c1=O`, the RP-LC retention time amounted to 701 s.

For the compound `CC(C)CC(=O)N(CC(=O)N(Cc1ccc2c(c1)OCO2)Cc1ccco1)CC1CCCO1` (stereo not given), the RP-LC retention time is 866 s.

As to `Brc1ccc(CSc2nnc(-c3ccccc3)o2)cc1`, the RP-LC retention time is 1180 s.

`Cc1ccc(N2CC(NC(=O)Nc3nc(C)cs3)CC2=O)cc1` (stereo not given) had an RP-LC retention time of 660 s.

Turning to `Cc1nn(CC(=O)NCCCN(C)Cc2ccccc2)c(=O)c2noc(C)c12`, the RP-LC retention time came to 588 s.

The compound `COc1ccccc1-n1nnc(C(=O)Nc2nc(C)cs2)c1-c1ccccn1` yielded an RP-LC retention time of 758 s.

Turning to `Cc1cccc(CS(=O)(=O)N(CCc2cccs2)Cc2cccnc2)c1`, the RP-LC retention time amounted to 691 s.

For `CN(C)c1cc(C(=O)NC2CCCC2)c2ccccc2n1`, the RP-LC retention time was determined as 619 s.

In turn, `COc1ncccc1CNC(=O)CCc1ccccc1` showed an RP-LC retention time of 738 s.

In the case of `CC1(C(=O)NCc2ccc(F)cc2)CN(S(C)(=O)=O)CC(=O)N1CCCc1ccccc1` (stereo not given), the RP-LC retention time came out at 882 s.

For `COCCNc1c(-c2ccc(F)cc2)nc2sc(C(=O)NCc3ccncc3)c(C)n12`, the RP-LC retention time came to 625 s.

In the case of `CCc1nncn1C1CCN(S(=O)(=O)c2cccc(C)c2)CC1`, the RP-LC retention time turned out to be 697 s.

Consider `Cc1ccc(-n2nnnc2CNC(=O)c2ccc([N+](=O)[O-])o2)cc1C`, for which the RP-LC retention time came to 745 s.

`Cc1nn(-c2ccc(N3CCCC3)nn2)c(C)c1CCC(=O)N1CCN(c2ccccn2)CC1` came in with an RP-LC retention time of 546 s.

`O=C1c2cccc3cccc(c23)C(=O)N1c1cccnc1`: the RP-LC retention time was determined as 631 s.

Regarding `Cc1cc(C)c(S(=O)(=O)NCCc2cn(CC(C)C)c3ncccc23)cc1C`, the RP-LC retention time turned out to be 1040 s.

As for `Cc1nc(-c2cnccn2)nc2c1CCC(=O)N2CC1CCCO1` (stereo not given), the RP-LC retention time amounted to 626 s.

For the compound `Cc1cc(C)n(-c2ccnc(NCCc3cccs3)n2)n1`, the RP-LC retention time was determined as 836 s.

`CCc1cc(N2CCN(C(=O)COc3ccc(OC)cc3)CC2)nc2nnc(C)n12`: the RP-LC retention time stood at 613 s.

The compound `COc1nccnc1NC1CCN(C(=O)c2ccc(C#N)cc2)CC1` registered an RP-LC retention time of 804 s.

Turning to `Cc1sc(-c2cc(C(F)(F)F)on2)cc1S(=O)(=O)NCC(C)c1ccccc1` (stereo not given), the RP-LC retention time worked out at 1230 s.

For `CN(Cc1nc(Cn2ccn3nc(-c4ccc(F)cc4)cc3c2=O)no1)C1CCCCC1`, the RP-LC retention time was 704 s.

Compound `Cc1ccc(S(=O)(=O)N2CCn3c(nn(CC4CC4)c3=O)C2)c(C)c1` showed an RP-LC retention time of 809 s.

Regarding `CCn1cnc(S(=O)(=O)N2CCC(C(=O)N3CCN(c4ccc(OC)cc4)CC3)CC2)c1`, the RP-LC retention time stood at 668 s.

In turn, `COc1ccc(Cl)cc1NC(=O)NCCN1CCN(S(C)(=O)=O)CC1` displayed an RP-LC retention time of 564 s.

With `N#CC1=C(SCC(=O)NCc2ccccc2)NC(=O)CC1c1cccc([N+](=O)[O-])c1` (stereo not given), the RP-LC retention time was 803 s.

Compound `COc1ccccc1NC(=O)NC1CCCC(OC(=O)Nc2ccc(F)cc2)C1` (stereo not given) registered an RP-LC retention time of 883 s.

`Cc1c(C(=O)NC2CC2)cnn1-c1cc(-c2nc(C(C)(C)C)no2)ccn1` came in with an RP-LC retention time of 668 s.

`Cc1cc(F)ccc1NS(=O)(=O)c1cc(-c2nc(C(C)(C)C)cs2)cs1` returned an RP-LC retention time of 1260 s.

`CCOc1ccc(NC(=O)NCC(c2cccnc2)c2cn(C)c3ccccc23)cc1` (stereo not given) gave an RP-LC retention time of 703 s.

`CCS(=O)(=O)c1ccc(-c2ccc(NS(=O)(=O)c3ccc(Cl)s3)cc2)nn1` had an RP-LC retention time of 810 s.

Compound `CCOc1ccccc1-c1noc(CN2C(=O)COc3ccc(C)cc32)n1` showed an RP-LC retention time of 1030 s.

Compound `Cn1nc(C(=O)Nc2ccccc2)c2c1CCN(C(=O)NCc1ccco1)C2` gave an RP-LC retention time of 760 s.

`Cc1nc(-n2cccc2)sc1C(=O)Nc1ccc(-c2cn3c(n2)SCC3)cc1` returned an RP-LC retention time of 627 s.

`CNC(=O)c1cc[nH]c1C1CCCN(C(=O)C2CC=CCC2)C1` (stereo not given) registered an RP-LC retention time of 672 s.

Compound `CCc1ccc(Oc2cc(N3CCC(C(=O)NCCc4ccccc4)CC3)ncn2)cc1` displayed an RP-LC retention time of 998 s.

Turning to `Cc1ccc(NS(=O)(=O)c2n[nH]c(C)c2C(=O)NCCc2cccs2)cc1`, the RP-LC retention time was found to be 912 s.

`CNC(=O)CSc1nnc(N2CCN(C(=O)Cc3ccc([N+](=O)[O-])cc3)CC2)s1` registered an RP-LC retention time of 618 s.

`Cn1nc(C(=O)N2CCCC(C(=O)NC3CC3)C2)c2c1CCN(C(=O)c1ccc(F)cc1)C2` (stereo not given) yielded an RP-LC retention time of 633 s.

For the compound `Cc1nn(C(C)C(=O)NCCCN2CCCC2=O)c(=O)c2nn(-c3ccccc3)c(C)c12` (stereo not given), the RP-LC retention time turned out to be 648 s.

In the case of `COc1ccc(NC(=O)c2cn3c(n2)CSCC3)cc1OC`, the RP-LC retention time worked out at 631 s.

In the case of `CC(C)CCNC(=O)C1(CCO)CCN(c2ncccn2)C1` (stereo not given), the RP-LC retention time stood at 614 s.

Consider `CCOC(=O)C1=C(C)NC2=C(C(=O)C(C(=O)OC)C(C)C2)C1c1ccc(OC)cc1` (stereo not given), for which the RP-LC retention time was determined as 860 s.

The compound `CCN(CC)C(=O)c1ccc2c(c1)N(Cc1ccc(C)cc1)C(=O)CO2` registered an RP-LC retention time of 588 s.

With `Cc1cccc(CN2CCCn3nc(C(=O)NCCCN4CCOCC4)cc3C2=O)c1`, the RP-LC retention time turned out to be 567 s.

`COc1ccc(C2(C(=O)N3CCCCCCNC(=O)[C@@H]4CCCC[C@@H]43)CC2)cc1`: the RP-LC retention time came out at 894 s.

As for `O=C(Cn1ccc2ccc(N3CCOCC3)nc21)NCc1cccc(Cl)c1`, the RP-LC retention time was found to be 909 s.

In turn, `CC(C)Cn1c(=O)c(-c2ccc(C(=O)NCCC3=CCCCC3)cc2)nc2ccccc21` showed an RP-LC retention time of 1300 s.

Turning to `COc1ccc2[nH]cc(CCNC(=O)C3CCCCC3)c2c1`, the RP-LC retention time is 804 s.

With `Cc1ccc(-c2nnc(Cc3nc(-c4cccc(C(F)(F)F)c4)no3)o2)cc1F`, the RP-LC retention time came out at 1180 s.

Compound `CCN(CC)CCNCc1ccc(-c2ccc(OC)c(Cl)c2)o1` showed an RP-LC retention time of 566 s.

`Cn1nc(-c2nc(C3CC3)no2)c2c1CCN(C(=O)c1ccc(C(C)(C)C)cc1)C2` registered an RP-LC retention time of 1290 s.

In the case of `O=C(NC1CCN(c2cc(-c3cccs3)[nH]n2)C1)c1cc(Cl)ccc1F` (stereo not given), the RP-LC retention time was determined as 800 s.

The compound `Cc1ccc(NC(=O)C2CC(=O)N(c3n[nH]c4cccc(F)c34)C2)nc1` (stereo not given) came in with an RP-LC retention time of 606 s.

As for `CCOCCCNC(=O)c1nnc(-c2ccc(S(=O)(=O)N3CCCCC3)cc2)o1`, the RP-LC retention time came out at 762 s.

The compound `CCn1c(=O)c2c(cc(C)n2C)n(CC(=O)Nc2c(C)cccc2C)c1=O` showed an RP-LC retention time of 756 s.

Take `CCc1nncn1C1CCN(C(=O)Nc2ccc(F)c(Cl)c2)C1` (stereo not given): the RP-LC retention time was found to be 661 s.

For the compound `Cc1cc(N2CCC(NC(=O)Nc3cccc(F)c3C)C2=O)ccc1F` (stereo not given), the RP-LC retention time came out at 904 s.

For `O=C(Nc1ccc2c(c1)OCO2)N(Cc1ccccn1)Cc1ccco1`, the RP-LC retention time was 628 s.

On to `CCn1c(=O)c2ccccc2n(Cc2nc(-c3cccc(Cl)c3)no2)c1=O`, for which the RP-LC retention time was found to be 1090 s.
